What was measured:
[1] = biological target: T1, Interleukin-1 receptor-associated kinase 3 (Homo sapiens) (UniProt Q9Y616)
T1 sequence (whole entry): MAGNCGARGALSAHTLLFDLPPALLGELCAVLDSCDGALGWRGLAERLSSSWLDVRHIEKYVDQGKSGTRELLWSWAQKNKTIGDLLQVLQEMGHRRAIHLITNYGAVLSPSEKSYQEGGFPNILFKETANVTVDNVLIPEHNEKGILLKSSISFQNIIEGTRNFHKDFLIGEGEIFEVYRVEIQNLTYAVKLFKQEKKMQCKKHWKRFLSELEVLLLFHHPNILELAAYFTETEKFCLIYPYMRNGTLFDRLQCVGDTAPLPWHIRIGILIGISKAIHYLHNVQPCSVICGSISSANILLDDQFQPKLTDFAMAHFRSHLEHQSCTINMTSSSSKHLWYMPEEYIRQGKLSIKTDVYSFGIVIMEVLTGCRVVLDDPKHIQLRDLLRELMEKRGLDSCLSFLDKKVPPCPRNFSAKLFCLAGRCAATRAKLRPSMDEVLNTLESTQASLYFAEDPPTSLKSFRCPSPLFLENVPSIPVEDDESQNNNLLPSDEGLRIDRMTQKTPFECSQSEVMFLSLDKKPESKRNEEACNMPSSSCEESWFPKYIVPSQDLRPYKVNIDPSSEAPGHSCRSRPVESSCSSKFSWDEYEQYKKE

[2] = biological target: Nitric oxide synthase 3 (Bos taurus) (UniProt P29473); conditions: Compound concentration 10.0 uM
[3] = biological target: Calpain-1 catalytic subunit (Homo sapiens) (UniProt P07384); conditions: Compound concentration 10.0 uM
Calpain-1 catalytic subunit (Homo sapiens), sequence (P07384 whole entry): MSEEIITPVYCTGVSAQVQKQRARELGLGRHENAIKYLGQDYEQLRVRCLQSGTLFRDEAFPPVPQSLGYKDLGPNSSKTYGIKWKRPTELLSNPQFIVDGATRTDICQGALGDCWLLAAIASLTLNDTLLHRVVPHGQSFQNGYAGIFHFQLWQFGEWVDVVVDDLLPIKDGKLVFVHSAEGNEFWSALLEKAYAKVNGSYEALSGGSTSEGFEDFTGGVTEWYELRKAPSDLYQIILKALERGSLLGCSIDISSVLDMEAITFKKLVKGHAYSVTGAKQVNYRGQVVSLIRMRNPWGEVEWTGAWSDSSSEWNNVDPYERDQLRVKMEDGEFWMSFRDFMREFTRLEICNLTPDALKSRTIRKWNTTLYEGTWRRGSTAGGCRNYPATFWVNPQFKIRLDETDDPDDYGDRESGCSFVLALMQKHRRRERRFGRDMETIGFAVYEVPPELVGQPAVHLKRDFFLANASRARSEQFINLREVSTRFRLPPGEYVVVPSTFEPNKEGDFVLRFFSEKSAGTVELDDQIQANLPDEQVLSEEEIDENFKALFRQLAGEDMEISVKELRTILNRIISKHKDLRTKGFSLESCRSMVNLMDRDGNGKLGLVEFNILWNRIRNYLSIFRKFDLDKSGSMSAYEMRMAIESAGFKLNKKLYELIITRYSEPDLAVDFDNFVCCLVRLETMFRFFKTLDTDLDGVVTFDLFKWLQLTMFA

[4] = biological target: Serine/threonine-protein kinase 24 (Homo sapiens) (UniProt Q9Y6E0); conditions: Compound concentration 1.0 uM
[5] = biological target: PI3-kinase p110-alpha/p85-alpha (Homo sapiens) (UniProt P27986+P42336); experiment: PIK3CAPIK3R1 Invitrogen Lab (UK) kinase screen (BI); assay type: protein-complex assay; conditions: Compound concentration 1.0 uM
[6] = biological target: Insulin receptor-related protein (Homo sapiens) (UniProt P14616); conditions: Compound concentration 1.0 uM
[7] = biological target: Serine/threonine-protein kinase 17A (Homo sapiens) (UniProt Q9UEE5); experiment: STK17A Invitrogen Lab (UK) kinase screen (BI); conditions: Compound concentration 1.0 uM
[8] = biological target: Phosphatidylinositol 3-kinase C2 domain-containing subunit gamma (Homo sapiens) (UniProt O75747); conditions: Compound concentration 1.0 uM
[9] = biological target: Dual specificity tyrosine-phosphorylation-regulated kinase 1A (Homo sapiens) (UniProt Q13627); experiment: DYRK1A DUNDEE kinase screen (BI); conditions: Rattus norvegicus; Compound concentration 10.0 uM
[10] = biological target: AMPK alpha1/beta1/gamma2 (Homo sapiens) (UniProt Q9UGJ0+Q9Y478+Q13131); conditions: Compound concentration 1.0 uM
AMPK alpha1/beta1/gamma2 (Homo sapiens), sequence (Q13131 whole entry partner): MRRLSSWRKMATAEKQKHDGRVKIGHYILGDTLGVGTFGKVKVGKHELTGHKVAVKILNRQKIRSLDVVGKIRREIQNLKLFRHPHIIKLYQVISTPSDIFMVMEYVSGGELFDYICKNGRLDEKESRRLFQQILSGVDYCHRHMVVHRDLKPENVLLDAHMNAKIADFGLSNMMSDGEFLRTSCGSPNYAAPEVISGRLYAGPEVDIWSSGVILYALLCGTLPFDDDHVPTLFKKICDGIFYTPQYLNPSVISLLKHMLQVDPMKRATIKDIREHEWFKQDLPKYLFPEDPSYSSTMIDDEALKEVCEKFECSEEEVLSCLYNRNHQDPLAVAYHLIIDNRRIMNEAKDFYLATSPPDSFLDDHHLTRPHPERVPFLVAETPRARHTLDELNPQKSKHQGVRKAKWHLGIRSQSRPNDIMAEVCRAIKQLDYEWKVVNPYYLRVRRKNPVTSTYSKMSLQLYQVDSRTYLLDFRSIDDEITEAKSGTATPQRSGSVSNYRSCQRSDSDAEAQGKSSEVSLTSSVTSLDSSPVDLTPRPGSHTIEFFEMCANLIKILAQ
AMPK alpha1/beta1/gamma2 (Homo sapiens), sequence (Q9UGJ0 whole entry): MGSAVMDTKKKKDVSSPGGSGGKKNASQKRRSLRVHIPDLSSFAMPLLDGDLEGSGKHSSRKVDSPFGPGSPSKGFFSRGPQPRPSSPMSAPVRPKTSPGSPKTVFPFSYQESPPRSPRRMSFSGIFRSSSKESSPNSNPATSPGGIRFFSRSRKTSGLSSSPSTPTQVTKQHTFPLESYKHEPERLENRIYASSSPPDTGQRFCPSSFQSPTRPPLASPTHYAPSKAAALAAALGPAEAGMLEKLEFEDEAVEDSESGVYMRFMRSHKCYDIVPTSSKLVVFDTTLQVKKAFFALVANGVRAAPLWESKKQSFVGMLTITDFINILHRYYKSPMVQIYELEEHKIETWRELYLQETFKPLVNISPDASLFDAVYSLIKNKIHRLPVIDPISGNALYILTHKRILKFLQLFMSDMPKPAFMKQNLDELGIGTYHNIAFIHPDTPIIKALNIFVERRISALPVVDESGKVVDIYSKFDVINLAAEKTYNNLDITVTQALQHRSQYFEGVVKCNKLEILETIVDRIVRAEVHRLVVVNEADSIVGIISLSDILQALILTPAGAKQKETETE
AMPK alpha1/beta1/gamma2 (Homo sapiens), sequence (Q9Y478 2-270 partner limits assumed): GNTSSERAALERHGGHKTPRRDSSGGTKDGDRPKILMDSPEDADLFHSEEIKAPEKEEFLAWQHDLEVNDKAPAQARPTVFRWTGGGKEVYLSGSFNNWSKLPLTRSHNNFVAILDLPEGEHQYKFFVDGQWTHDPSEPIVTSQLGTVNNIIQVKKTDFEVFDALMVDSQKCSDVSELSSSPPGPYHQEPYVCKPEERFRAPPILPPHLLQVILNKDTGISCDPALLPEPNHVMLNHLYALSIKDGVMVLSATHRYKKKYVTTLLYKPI

[11] = biological target: Serine/threonine-protein kinase D2 (Homo sapiens) (UniProt Q9BZL6); conditions: Compound concentration 1.0 uM
[12] = biological target: Testis-specific serine/threonine-protein kinase 2 (Homo sapiens) (UniProt Q96PF2); conditions: Compound concentration 1.0 uM
[13] = biological target: cAMP-dependent protein kinase catalytic subunit beta (Homo sapiens) (UniProt P22694); experiment: PRKACB (PRKAC BET Invitrogen Lab (UK) kinase screen (BI); conditions: Compound concentration 1.0 uM
[14] = biological target: Beta-adrenergic receptor kinase 1 (Homo sapiens) (UniProt P25098); conditions: Compound concentration 1.0 uM
[15] = biological target: Activin receptor type-2B (Homo sapiens) (UniProt Q13705); conditions: Compound concentration 1.0 uM
Activin receptor type-2B (Homo sapiens), sequence (Q13705 whole entry): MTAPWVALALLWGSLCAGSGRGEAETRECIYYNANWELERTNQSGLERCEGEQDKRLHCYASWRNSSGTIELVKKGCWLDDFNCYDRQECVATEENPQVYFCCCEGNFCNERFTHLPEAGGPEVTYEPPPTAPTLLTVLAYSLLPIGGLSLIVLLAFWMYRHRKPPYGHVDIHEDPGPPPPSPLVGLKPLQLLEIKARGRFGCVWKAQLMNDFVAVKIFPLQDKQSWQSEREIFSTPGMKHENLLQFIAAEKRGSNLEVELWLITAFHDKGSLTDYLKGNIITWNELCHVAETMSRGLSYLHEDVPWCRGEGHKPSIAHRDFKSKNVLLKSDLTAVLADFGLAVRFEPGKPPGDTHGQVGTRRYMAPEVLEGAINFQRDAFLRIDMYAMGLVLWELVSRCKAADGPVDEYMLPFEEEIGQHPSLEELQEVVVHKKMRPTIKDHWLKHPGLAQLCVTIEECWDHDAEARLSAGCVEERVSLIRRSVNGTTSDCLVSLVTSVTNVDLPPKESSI

[16] = biological target: Activin receptor type-1 (Homo sapiens) (UniProt Q04771); experiment: ACVR1 Invitrogen Lab (UK) kinase screen (BI); conditions: Compound concentration 1.0 uM
[17] = biological target: Serine/threonine-protein kinase LATS2 (Homo sapiens) (UniProt Q9NRM7); experiment: LATS2 Invitrogen Lab (UK) kinase screen (BI); conditions: Compound concentration 1.0 uM
[18] = biological target: Acetylcholinesterase (Homo sapiens) (UniProt P22303); conditions: Compound concentration 10.0 uM
[19] = biological target: Serine/threonine-protein kinase SIK3 (Homo sapiens) (UniProt Q9Y2K2); experiment: SIK3 Invitrogen Lab (UK) kinase screen (BI); conditions: Compound concentration 1.0 uM
[20] = biological target: RAF proto-oncogene serine/threonine-protein kinase (Homo sapiens) (UniProt P04049); experiment: RAF1 Invitrogen Lab (UK) kinase screen (BI); conditions: Compound concentration 1.0 uM
RAF proto-oncogene serine/threonine-protein kinase (Homo sapiens), sequence (P04049 whole entry): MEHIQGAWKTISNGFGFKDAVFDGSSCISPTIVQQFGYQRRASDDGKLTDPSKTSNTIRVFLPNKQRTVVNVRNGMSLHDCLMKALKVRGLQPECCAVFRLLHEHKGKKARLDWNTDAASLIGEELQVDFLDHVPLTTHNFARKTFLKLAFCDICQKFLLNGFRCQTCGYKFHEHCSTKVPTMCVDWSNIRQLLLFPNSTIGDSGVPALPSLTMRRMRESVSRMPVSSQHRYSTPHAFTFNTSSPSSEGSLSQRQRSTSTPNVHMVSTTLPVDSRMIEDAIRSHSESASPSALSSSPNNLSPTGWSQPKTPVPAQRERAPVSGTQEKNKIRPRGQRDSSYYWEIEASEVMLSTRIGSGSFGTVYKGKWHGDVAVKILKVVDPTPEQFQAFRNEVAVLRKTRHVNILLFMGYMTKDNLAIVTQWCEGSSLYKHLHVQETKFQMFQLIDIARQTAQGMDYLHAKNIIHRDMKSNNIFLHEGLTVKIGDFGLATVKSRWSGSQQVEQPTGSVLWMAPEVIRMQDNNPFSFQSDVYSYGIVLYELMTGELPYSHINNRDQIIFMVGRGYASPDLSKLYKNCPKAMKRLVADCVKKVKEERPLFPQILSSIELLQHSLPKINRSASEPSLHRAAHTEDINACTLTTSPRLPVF

[21] = biological target: Cathepsin G (Homo sapiens) (UniProt P08311); experiment: PEPCATHEPSG Eurofins SafetyScreen44 (BI); conditions: Compound concentration 10.0 uM
[22] = biological target: Macrophage-stimulating protein receptor (Homo sapiens) (UniProt Q04912); conditions: Compound concentration 1.0 uM
[23] = biological target: G protein-coupled receptor kinase 4 (Homo sapiens) (UniProt P32298); conditions: Compound concentration 1.0 uM
[24] = biological target: Leukotriene C4 synthase (Cavia porcellus) (UniProt A6XA80); conditions: Compound concentration 10.0 uM
Leukotriene C4 synthase (Cavia porcellus), sequence (A6XA80 whole entry): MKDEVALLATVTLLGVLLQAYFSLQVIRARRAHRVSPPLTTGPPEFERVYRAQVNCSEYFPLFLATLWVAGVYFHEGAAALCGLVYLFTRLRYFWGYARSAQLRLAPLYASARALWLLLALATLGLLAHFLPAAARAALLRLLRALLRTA

[25] = biological target: Serine/threonine-protein kinase pim-1 (Homo sapiens) (UniProt P11309)
Serine/threonine-protein kinase pim-1 (Homo sapiens), sequence (P11309 whole entry, looked up): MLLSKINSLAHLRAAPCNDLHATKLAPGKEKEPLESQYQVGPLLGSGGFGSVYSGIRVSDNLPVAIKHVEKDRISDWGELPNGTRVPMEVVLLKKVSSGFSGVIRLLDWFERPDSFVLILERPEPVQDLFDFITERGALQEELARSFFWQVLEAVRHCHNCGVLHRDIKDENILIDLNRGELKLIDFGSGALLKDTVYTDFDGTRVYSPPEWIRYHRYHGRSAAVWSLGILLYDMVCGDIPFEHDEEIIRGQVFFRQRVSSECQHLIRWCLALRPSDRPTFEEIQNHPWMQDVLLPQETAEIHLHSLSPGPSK

[26] = biological target: Phosphatidylinositol 4-kinase alpha (Homo sapiens) (UniProt P42356); experiment: PI4KA Invitrogen Lab (UK) kinase screen (BI); conditions: Compound concentration 1.0 uM
[27] = biological target: Mitogen-activated protein kinase 3 (Homo sapiens) (UniProt P27361); conditions: Compound concentration 1.0 uM
Mitogen-activated protein kinase 3 (Homo sapiens), sequence (P27361 whole entry): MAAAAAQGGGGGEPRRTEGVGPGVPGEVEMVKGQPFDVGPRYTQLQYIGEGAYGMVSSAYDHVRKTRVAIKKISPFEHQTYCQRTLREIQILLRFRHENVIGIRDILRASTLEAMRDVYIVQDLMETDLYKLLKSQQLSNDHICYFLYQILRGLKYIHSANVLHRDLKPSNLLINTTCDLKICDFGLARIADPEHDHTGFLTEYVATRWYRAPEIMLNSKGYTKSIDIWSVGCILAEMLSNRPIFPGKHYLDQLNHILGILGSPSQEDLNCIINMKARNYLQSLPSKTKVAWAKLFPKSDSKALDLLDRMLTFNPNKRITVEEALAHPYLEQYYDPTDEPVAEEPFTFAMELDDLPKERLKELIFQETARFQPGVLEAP

[28] = biological target: Tyrosine-protein kinase Tec (Homo sapiens) (UniProt P42680); conditions: Compound concentration 1.0 uM
[29] = biological target: T2, D(4) dopamine receptor (Homo sapiens) (UniProt P21917); conditions: Compound concentration 10.0 uM
T2 sequence (whole entry): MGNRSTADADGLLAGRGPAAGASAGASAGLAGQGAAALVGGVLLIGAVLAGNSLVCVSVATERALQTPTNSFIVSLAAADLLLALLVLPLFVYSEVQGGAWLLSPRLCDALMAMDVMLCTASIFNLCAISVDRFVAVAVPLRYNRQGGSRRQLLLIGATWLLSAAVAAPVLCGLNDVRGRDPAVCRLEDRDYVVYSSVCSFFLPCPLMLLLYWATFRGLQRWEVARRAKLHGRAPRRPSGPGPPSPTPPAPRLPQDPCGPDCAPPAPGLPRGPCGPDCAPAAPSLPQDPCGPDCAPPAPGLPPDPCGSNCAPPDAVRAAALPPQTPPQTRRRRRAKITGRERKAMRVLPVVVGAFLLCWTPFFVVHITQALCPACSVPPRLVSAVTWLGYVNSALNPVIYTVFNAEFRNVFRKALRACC

[30] = biological target: Discoidin domain-containing receptor 2 (Homo sapiens) (UniProt Q16832); conditions: Compound concentration 1.0 uM
Discoidin domain-containing receptor 2 (Homo sapiens), sequence (Q16832 whole entry, the tested form may be a part): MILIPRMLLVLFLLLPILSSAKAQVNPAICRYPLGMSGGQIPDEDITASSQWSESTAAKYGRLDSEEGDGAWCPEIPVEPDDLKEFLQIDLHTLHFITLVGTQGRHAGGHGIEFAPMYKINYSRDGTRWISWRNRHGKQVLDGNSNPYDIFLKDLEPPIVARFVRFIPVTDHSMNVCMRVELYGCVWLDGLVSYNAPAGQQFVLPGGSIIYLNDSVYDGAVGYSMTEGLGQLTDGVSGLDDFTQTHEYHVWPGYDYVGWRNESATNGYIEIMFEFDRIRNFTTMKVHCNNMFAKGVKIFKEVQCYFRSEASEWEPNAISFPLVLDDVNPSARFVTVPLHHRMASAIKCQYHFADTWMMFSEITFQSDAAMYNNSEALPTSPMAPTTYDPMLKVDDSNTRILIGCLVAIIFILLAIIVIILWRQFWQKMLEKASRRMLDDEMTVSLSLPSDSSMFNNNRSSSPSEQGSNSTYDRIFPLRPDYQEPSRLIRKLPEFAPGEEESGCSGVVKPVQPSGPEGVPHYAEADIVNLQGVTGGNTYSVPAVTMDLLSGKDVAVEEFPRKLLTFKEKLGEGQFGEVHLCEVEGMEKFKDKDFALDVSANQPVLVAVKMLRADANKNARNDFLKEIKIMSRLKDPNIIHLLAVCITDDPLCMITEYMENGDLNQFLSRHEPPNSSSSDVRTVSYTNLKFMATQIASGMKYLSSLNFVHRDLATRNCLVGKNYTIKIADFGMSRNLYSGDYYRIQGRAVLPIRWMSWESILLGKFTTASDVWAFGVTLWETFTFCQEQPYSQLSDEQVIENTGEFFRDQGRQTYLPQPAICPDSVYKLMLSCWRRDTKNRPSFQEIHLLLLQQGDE

CCC(F)(F)c1cc(N2CCC(S(C)(=O)=O)CC2)nc2sc(C(N)=O)c(N)c12 [BI-605906]
inactive: residual activity ([1]; Compound concentration 0.001 uM) 93% | residual activity [2] 100% | residual activity [3] 97% | residual activity [4] 101% | residual activity [5] 103% | residual activity [6] 92% | residual activity [7] 80% | residual activity [8] 90% | residual activity [9] 74.9% | residual activity [10] 89% | residual activity [11] 95% | residual activity [12] 91% | residual activity [13] 77% | residual activity [14] 95% | residual activity [15] 91% | residual activity [16] 79% | residual activity [17] 88% | residual activity [18] 87% | residual activity [19] 79% | residual activity [20] 78% | residual activity [21] 106% | residual activity [22] 105% | residual activity [23] 100% | residual activity [24] 93% | residual activity ([25]; Compound concentration 1.0 uM) 90% | residual activity ([25]; Compound concentration 10.0 uM) 99% | residual activity [26] 84% | residual activity [27] 100% | residual activity [28] 96% | inhibition [29] 44.6% | residual activity [30] 99%
active: residual activity ([1]; Compound concentration 1.0 uM) 24% | residual activity ([1]; Compound concentration 20.0 uM) 14%

From ChEMBL document CHEMBL4800722, “Data for DCP probe BI 605906” (2021)
